Results taken from patent US8114641B2, “Methylbutanol as an advanced biofuel” (Synthetic Genomics, Inc., priority 2007, dated 2012).
Like-named read-outs stand apart in the source and are kept apart here.

Key:
[1] = Physical properties of alcohol fuels and gasoline; type: physicochemical
[2] = for Energy Content / Pump Octane (R + M)/2: 10% blend in gasoline; for Pump Octane (R + M)/2: RBOB with Pump Octane 80.85 and RVP 7.37; for Reid Vapor Pressure: measured with 9.5% volumetric blend in RBOB
[3] = based on literature review; cited from earlier work
[4] = Fuel properties of the neat fuel; conditions: for Pump Octane (R + M)/2: extrapolated from tests on blended fuels (blending octanes)
[5] = Ether fuel testing (ULSD and hexadecane blends, neat ether); type: physicochemical
[6] = Keto acid decarboxylase activity on 2-keto-3-methylvalerate, PDC/KDC-ADH6 coupled assay with crude extracts; type: biochemical; conditions: for Km: enzyme expressed from p415 TEF in S. cerevisiae PDC1 deletion strain, read-out: Km 2 keto 3 methyl valerate
Procedure: (§1) The Lactococcus lactis KdcA and S. cerevisiae and P. stipitis PDCs were cloned into yeast expression vector p415 under the control of TEF promoter. The host strain was a PDC1 deletion strain. Crude extracts were prepared for enzymatic assays by incubating cell pellet with CelLytic (Sigma), followed by bead beating. The decarboxylase reaction was performed in 100 mM Citrate Phosphate buffer with 1 mM Thiamine diphosphate, 1 mM MgCl2 and 50 μM to 20 mM aldehyde. The assay was coupled to an alcohol dehydrogenase which enabled continuous monitoring of NADH or NADPH oxidation at 340 nm.
The substrate specificity of the crude extract overexpressing different PDC/Kdcs was tested with a broad range of aldehydes. This included acetaldehyde, butyraldehyde and 2-methylbutyraldehyde. The concentration of the aldehydes was varied from 50 μM to 20 mM to determine the Km and Vmax values.
2-keto-3-methylvalerate (2K3MV) was tested for decarboxylation and subsequent reduction using PDC/KDC-ADH6 coupled assays.

[7] = Keto acid decarboxylase activity on 2-keto butyrate, NADH dependent coupled assay with yeast ADH1; type: biochemical
Procedure: as §1
NADH dependent coupled assays with yeast ADH1 were carried out to determine the decarboxylase activity of yeast and heterologous enzymes on the substrate 2 keto butyrate (2KB). 2KB is an intermediate in the production of 2-methylbutanol. A high decarboxylase activity on 2KB can lead to its conversion to propanal and reduce the yield of 2-MBO. […] (See FIG. 25 a-g.) The enzyme with the lowest Km for 2-ketobutyrate is yeast PDC1 and therefore the corresponding gene needs to be deleted in the 2-MBO production strain (data not shown).

[8] = Keto acid decarboxylase activity on pyruvate, crude extracts; type: biochemical; conditions: crude extract, S. cerevisiae PDC1 deletion host; sigmoidal curves
Procedure: as §1
Pyruvate is the target for multiple enzymes and a decarboxylation of the compound can lead to the production of acetaldehyde and subsequently ethanol. To prevent decarboxylation of pyruvate and increase 2-MBO production, a keto acid decarboxylase with a very high Km for pyruvate is ideal. […] The kinetic curves obtained with pyruvate as substrate were sigmoidal. This could be due to the fact that there are multiple enzymes in the crude extract with different Km for pyruvate. The final curve is therefore the superposition of individual curves. Absolute Km values […]. (FIG. 26.)

[9] = Endpoint assay for acetolactate synthase activity with pyruvate as substrate; type: biochemical; conditions: colorimetric detection at 546 nm, expressed in yeast
Procedure: FIG. 23 (a-d.) Endpoint assays for acetolactate synthase activity were carried out using pyruvate as substrate. The resulting acetolactate was converted to […] under acidic conditions. Acetone was reacted with α-naphtha for colorimetric detection at 546 nm. […] The reaction was only moderately subject to feedback inhibition by leucine, isoleucine and valine (b, c and d) which could be due to longer reaction times.

[10] = Enzyme assays of overexpressed ADH6 and ADH7 with crude extracts; type: biochemical; conditions: NADPH dependent
Procedure: Yeast ADH6 and ADH7 have been reported as broad substrate specificity alcohol dehydrogenases. These enzymes were therefore overexpressed in S. cerevisiae under the control of TEF promoter and enzyme assays were carried out with crude extracts. Both ADH6 and ADH7 were active on 2-methylbutanal and were NADPH dependent reductases.

[11] = Aldehyde reductase assay of purified ADH6 on 2-methyl butyraldehyde; type: biochemical
Procedure: Enzyme assays for aldehyde reductase activity were carried out in 100 mM citrate phosphate buffer pH6.2, 0.5 mM NADPH and 0.05 to 20 mM substrate (acetaldehyde or 2-methylbutanal). The reaction was monitored for 5 minutes at 340 nm for oxidation of NADPH to NADP+.

[12] = crude extract, S. cerevisiae PDC1 deletion host

## CCC(C)CO (stereo not drawn) [2-MBO, 2-methyl-1-butanol]
[1]
  Boiling Point, max: 130 °C
  Flash Point, min: 43 °C
  Freezing Point, max: −70 °C
[2]
  Energy Content: 113,963 BTU/gal
  Pump Octane (R + M)/2: 83.0
  Reid Vapor Pressure: ~7^B psi
[3]
  Fuel Solubility in Water: 3 wt %
  Water Solubility in Fuel: 9 wt %
[4]
  Energy Content: 113,627 BTU/gal
  Reid Vapor Pressure: 2.3 psi
  Pump Octane (R + M)/2: 102.0

## CCC(C)COCC(C)CC (stereo not drawn) [2MBO-ether, 2-methyl-1-(2-methylbutoxy)butane]
[5]
  Flash: 118 ° F.
  Solubility in Water: <500 ppm

## CC(C)CCO [3-MBO, 3-methyl-1-butanol]
[1]
  Boiling Point, max: 130 °C
  Flash Point, min: 43 °C
  Freezing Point, max: −117 °C
[2]
  Energy Content: 113,824 BTU/gal
  Pump Octane (R + M)/2: 82.0
  Reid Vapor Pressure: ~7^B psi
[3]
  Fuel Solubility in Water: 2 wt %
  Water Solubility in Fuel: 9 wt %
[4]
  Energy Content: 112,240 BTU/gal
  Reid Vapor Pressure: 2.3 psi
  Pump Octane (R + M)/2: 101.0

## CCCCCCCCCCCCCCCC [Hexadecane, reference compound]
[5]
  wear scar diameter: 534 µm

B1: P. stipitis PDC 3/6: Pyruvate decarboxylase (PDC6) (PDC3) [Pichia stipitis], SEQ ID NO: 53 (protein, listed as Pichia stipitis)
chain: MTPVQETIRLPGTSSPTVPENVTLGEYLFLRISQANPKLRSIFGIPGDFNVDLLEHLYSPVVAGRDIKFIGLCNELNGAYTADGYSRAIGGLSTFISTFGVGELSAINGIAGSFAEFSPVLHIVGTTSLPQRDHAINGSDVRNHHHLIQNKNPLCQPNHDVYKKMIEPISVIQESLDSDLQRNMEKIDRVLVKILQESRPGYLFIPCDITNLIVPSYRLYETPLPLEIQLTTSGVEVLEDVVDAILFRLYKSKNPSLLSDCLTTRFNLQDKLNTLVAKLPSNFVKLFSTNMARNIDESLSNFVGLYFGIGSSSKEVSRQLERNTDFLINLGYFNAETTTAGYSNDFSNIEEYIEINPDYIKVNEHIINIKNPESGKRLFSMGQLLDALLFKLDLNKIENINNNNISYKFFPPTLYEQDNNTDYIPQTKLVDYLNENLQPGDLLVMDTMSFCFALPDIMLPQGVQLLTQNYYGSIGYALPSTFGATMAVNDLGSDRRIILIEGDGAAQMTIQELSSFLKYKEFLPNMPKIFLINNDGYTVERMIKGPTRSYNDINGEWSWTQLLGVFGDKEQKYHSTALLRNVNEFNKYFEFQRQTDNSKLEFIELIAGKYDCPLRFSEMFCKK
[6]; [12]
  Vmax 2 keto 3 methyl valerate: 3359. uM/min/mg
[6]; crude extract, listed as P. stipitis PDC3/6
  Km: 840 µM
[6]; crude extract
  Km: 840 µM
[6]; relative to L. lactis KdcA
  Vmax on 2-keto-3-methylvalerate, fold higher than KdcA: 3.4 fold
[7]; [12]
  Vmax 2 keto butyrate: 5389 µM/min/mg
[7]; crude extract, enzyme expressed from p415 TEF in S. cerevisiae PDC1 deletion strain
  Km: 6510 µM
[7]; relative to L. lactis KdcA
  Vmax on 2 keto butyrate, fold higher than KDCA: about 3.4 fold
[8]
  Vmax Pyruvate: 12624 µM/min/mg

B2: E. coli ilvB: Acetolactate synthase I, large subunit [Escherichia coli], SEQ ID NO: 37 (protein, listed as Escherichia coli)
chain: MASSGTTSTRKRFTGAEFIVHFLEQQGIKIVTGIPGGSILPVYDALSQSTQIRHILARHEQGAGFIAQGMARTDGKPAVCMACSGPGATNLVTAIADARLDSIPLICITGQVPASMIGTDAFQEVDTYGISIPITKHNYLVRHIEELPQVMSDAFRIAQSGRPGPVWIDIPKDVQTAVFEIETQPAMAEKAAAPAFSEESIRDAAAMINAAKRPVLYLGGGVINAPARVRELAEKAQLPTTMTLMALGMLPKAHPLSLGMLGMHGVRSTNYILQEADLLIVLGARFDDRAIGKTEQFCPNAKIIHVDIDRAELGKIKQPHVAIQADVDDVLAQLIPLVEAQPRAEWHQLVADLQREFPCPIPKACDPLSHYGLINAVAACVDDNAIITTDVGQHQMWTAQAYPLNRPRQWLTSGGLGTMGFGLPAAIGAALANPDRKVLCFSGDGSLMMNIQEMATASENQLDVKIILMNNEALGLVHQQQSLFYEQGVFAATYPGKINFMQIAAGFGLETCDLNNEADPQASLQEIINRPGPALIHVRIDAEEKVYPMVPPGAANTEMVGE
[9]
  acetolactate synthase activity on pyruvate: highest activity

B3: ADH7: Saccharomyces cerevisiae NADPH-dependent alcohol dehydrogenase ADH7, SEQ ID NO: 72 (protein, listed as Saccharomyces cerevisiae)
chain: MLYPEKFQGIGISNAKDWKHPKLVSFDPKPFGDHDVDVEIEACGICGSDFHIAVGNWGPVPENQILGHEIIGRVVKVGSKCHTGVKIGDRVGVGAQALACFECERCKSDNEQYCTNDHVLTMWTPYKDGYISQGGFASHVRLHEHFAIQIPENIPSPLAAPLLCGGITVFSPLLRNGCGPGKRVGIVGIGGIGHMGILLAKAMGAEVYAFSRGHSKREDSMKLGADHYIAMLEDKGWTEQYSNALDLLVVCSSSLSKVNFDSIVKIMKIGGSIVSIAAPEVNEKLVLKPLGLMGVSISSSAIGSRKEIEQLLKLVSEKNVKIWVEKLPISEEGVSHAFTRMESGDVKYRFTLVDYDKKFHK
[10]
  activity on 2-methylbutanal: active

B4: ADH6: Saccharomyces cerevisiae alcohol dehydrogenase ADH6, SEQ ID NO: 66 (protein, listed as Saccharomyces cerevisiae)
chain: MSYPEKFEGIAIQSHEDWKNPKKTKYDPKPFYDHDIDIKIEACGVCGSDIHCAAGHWGNMKMPLVVGHEIVGKVVKLGPKSNSGLKVGQRVGVGAQVFSCLECDRCKNDNEPYCTKFVTTYSQPYEDGYVSQGGYANYVRVHEHFVVPIPENIPSHLAAPLLCGGLTVYSPLVRNGCGPGKKVGIVGLGGIGSMGTLISKAMGAETYVISRSSRKREDAMKMGADHYIATLEEGDWGEKYFDTFDLIVVCASSLTDIDFNIMPKAMKVGGRIVSISIPEQHEMLSLKPYGLKAVSISYSALGSIKELNQLLKLVSEKDIKIWVETLPVGEAGVHEAFERMEKGDVRYRFTLVGYDKEFSD
[11]; purified His-tagged enzyme, pH6.2, 0.5 mM NADPH
  Km: 360 µM
[11]; purified enzyme
  Vmax (cofactor oxidation rate) for 2-methyl butyraldehyde, fold higher than acetaldehyde: 1.3 fold
[10]
  activity on 2-methylbutanal: active

B5: E. coli ilvG: Acetolactate synthase II, large subunit [Escherichia coli], SEQ ID NO: 39 (protein, listed as Escherichia coli)
chain: MNGAQWVVHALRAQGVNTVFGYPGGAIMPVYDALYDGGVEHLLCRHEQGAAMAAIGYARATGKTGVCIATSGPGATNLITGLADALLDSIPVVAITGQVSAPFIGTDAFQEVDILGLSLACTKHSFLVQSLEELPRIMAEAFDVASSGRPGPVLVDIPKDIQLASGDLEPWFTTVENEVTFPHAEVEQARQMLAKAQKPMLYVGGGVGMAQAVSALREFLAATKMPATCTLKGLGAVEADYPYYLGMLGMHGTKAANFAVQECDLLIAVGARFDDRVTGKLNTFAPHASVIHMDIDPAEMNKLRQAHVALQGDLNALLPALQQPLNINDWQQYCAQLRDEHTWRYDHPGDAIYAPLLLKQLSDRKPADCVVTTDVGQHQMWAAQHIAHTRPENFITSSGLGTMGFGLPAAVGAQVARPNDTVVCISGDGSFMMNVQELGTVKRKQLPLKIVLLDNQRLGMVRQWQQLFFQERYSETTLTDNPDFLMLASAFGIPGQHITRKDQVEAALDTMLNSDGPYLLHVSIDELENVWPLVPPGASNSEMLEKLS
[9]
  acetolactate synthase activity on pyruvate: minimum activity
